Data as given in paper PMC10746112, “Synthesis and Pro-Apoptotic Effects of Nitrovinylanthracenes and Related Compounds in Chronic Lymphocytic Leukaemia (CLL) and Burkitt’s Lymphoma (BL)” (Molecules, 2023).

Columns and labels:
Bjab BL cell line = assay: alamarBlue cell viability assay; format: cell-based; conditions: Homo sapiens, 24 h
Protocol: (§1) Cells were seeded at a density of 2.5 × 10^4 cells/well (MCF-7, MDA-MB-231 cells), 1 × 10^4 cells/well (HL-60 cells), 1–5 × 10^4 cells per well (BL MUTU-I, DG-75 cells) and 2 × 10^5 cells/well [HG-3, PGA-1 (CLL cells)], Ramos, BJAB (BL cells) (200 μL per well), in 96-well plates. Cells were treated with the desired drug concentration for the appropriate time for each cell type, and the samples were incubated as required. alamarBlue (20 μL) was then added to each well and the samples further incubated in the dark at 37 °C for 4 h. Wells containing only reagent and cell culture medium in the absence of cells were used as blank controls. Ethanol was used as a vehicle, and cells were treated with 1% ethanol (v/v) in all experiments. The 96-well plates were analysed on a fluorescence plate reader (SpectraMax Gemini, Molecular Devices) (emission and excitement wavelengths of 590 nm and 544 nm, respectively), and the fluorescence was recorded. The decrease in cell viability was then calculated with reference to the vehicle samples (100% viability). EMEM medium with the addition of alamarBlue was used as a blank. Vehicle-treated cells were considered to be 100% viable, and the viabilities of each compound was calculated accordingly. […] All biochemical assays were performed in triplicate on at least three independent occasions, and the mean values were determined.

Ramos BL cell line = assay: alamarBlue cell viability assay; format: cell-based; conditions: Homo sapiens, 24 h
Protocol: as §1

DG-75 BL cells = assay: Annexin V/PI apoptotic assay (FACS); format: cell-based; conditions: 10 µM, 48 h, total (early + late) apoptosis
Protocol: (§2) The chemotherapeutic drug taxol was used as a positive control. The pro-apoptotic effects of the selected nitrostyrene compounds 11g, 11h, 11i, 11j, 11k and 11l (10 μM) were determined using FITC (fluorescein isothiocyanate), Annexin V/PI (propidium iodide) staining and FACS (fluorescence-activated cell sorting) analysis to characterise the mode of cellular death induced by the synthesised compounds. Four populations were produced in this assay: Annexin-V- and PI-negative (Q4, healthy cells), Annexin-V-positive and PI-negative (Q3, early apoptosis), Annexin-V- and PI-positive (Q2, late apoptosis) and Annexin-V-negative and PI-positive (Q1, necrosis), which were easily identified and quantified. Apoptosis was assessed as % total apoptosis by a combination of early and late apoptosis (Q3 and Q2, respectively). […] The identification of compounds that can induce apoptosis in cancer cells is required in the development of potential lead structures for anticancer drugs.
(§3) The BL cells DG-75 and MUTU-I (750,000) were treated at 37 °C with either vehicle (0.1% (v/v) EtOH), […] taxol (10 μM) and incubated for 24 h (MUTU-1) or 48 h (DG-75). The CLL cells PGA1 and HG3 (1 × 10^6 cells/mL) were treated at 37 °C with either vehicle (1% (v/v) DMSO) or the nitrostyrene compounds 19a (10 μM, 5 μM and 1 μM) and 19g, 19i, 19l and 19m (10 μM and 1 μM) for 48 h. The cells were then harvested by centrifugation at 400× g in a temperature-controlled Sorvall centrifuge and rinsed with 0.5 mL of Ca^2+ Annexin-V-binding buffer (0.1 M HEPES, pH 7.4; 0.14 M NaCl; 25 mM CaCl2). The samples were resuspended in 50 µL FITC Annexin V (diluted 1:33 in Ca^2+ Annexin V-binding buffer), incubated on ice for 10 min (protected from light), washed with Annexin-V-binding buffer and re-suspended in 500 µL of propidium iodide (PI) solution (0.5 µg/mL). The samples were analysed within 1 h using a BD Accuri C6 flow cytometer counting 10,000 cells and analysed using the FlowJo software (FlowJo LLC, Ashland, OR, USA) package.

MUTU-I BL cells = assay: Annexin V/PI apoptotic assay (FACS); format: cell-based; conditions: 10 µM, 24 h, total (early + late) apoptosis
Protocol: as §2, §3

HG-3 CLL cells = assay: Inhibitor studies (NAC, Z-VAD-FMK), Annexin V/PI FACS; format: cell-based; conditions: 48 h
Protocol: (§4) Additional annexin V/PI FACS analysis was carried out in the presence of a reactive oxygen species (ROS) inhibitor (N-acetylcysteine) and a pan-caspase inhibitor (Z-VAD-FMK) in order to study their effects (if any) on the pro-apoptotic effects of 11h (Figure 6). […] Similar results were obtained in the HG-3 cell line at 2.5 µM (90% to 31%) and 5 µM of 11h (84% to 51%). In the presence of the caspase inhibitor Z-VAD-FMK ([…]), the apoptosis induced by compound 11h decreased from 63% to 25% at 2.5 µM and from 79% to 43% at 5 µM in the PGA1 cell line. Similar results were obtained in the HG-3 cell line at 2.5 µM (84% to 29%) and 5 µM (74% to 50%). These findings indicate that both caspases and ROS may be involved in the mechanism of apoptosis for compound 11h.
(§5) The HG-3 and PGA-1 CLL cells (5 × 10^4 cells/mL) were pre-treated at 37 °C with either 5 mM N-acetylcysteine (NAC) for 1 h or 40 μM caspase inhibitor (Z-VAD-FMK; MBL International, Co., Woburn, MA, USA) for 4 h prior to treatment with (11 h at 5 μM) for 48 h. Annexin V/PI FACS analysis was then carried out as described above in Section 4.5.

PGA-1 CLL cells = assay: as above; format: cell-based; conditions: 48 h
Protocol: as §4, §5

MUTU-1 cells = system: MUTU-1 cells; design: method as in earlier work; conditions: nitrostyrenes and taxol, MTT assay, reported data; cited from earlier work
[1] = system: MUTU-I Burkitt’s lymphoma cell line; conditions: nitrostyrenes, 24 h, cited from earlier work
[2] = system: DG-75 Burkitt’s lymphoma cell line; conditions: nitrostyrenes, 1 µM, 48 h; cited from earlier work

Compound `C/C(=C\c1cccc(Cl)c1)[N+](=O)[O-]` [Compound 11h] has a viability at 1 µM (Bjab BL cell line; read-out: % Viable Cells Remaining Bjab 24 h 1 µM) of 90.1%, a viability at 10 µM (Bjab BL cell line; read-out: % Viable Cells Remaining Bjab 24 h 10 µM) of 46.2% and a viability at 1 µM (Ramos BL cell line; read-out: % Viable Cells Remaining Ramos 24 h 1 µM) of 27.2%. For the same compound, the viability at 10 µM (Ramos BL cell line; read-out: % Viable Cells Remaining Ramos 24 h 10 µM) was 5.1%, the “DG-75 Apoptosis (%)” value (DG-75 BL cells) was 92.0% and the “MUTU-I Apoptosis (%)” value (MUTU-I BL cells) was 82.6%. The apoptosis (HG-3 CLL cells; HG-3, 2.5 µM compound, in the presence of NAC) was 31%, the apoptosis (HG-3 CLL cells; HG-3, 2.5 µM compound, in the presence of Z-VAD-FMK) was 29% and the apoptosis (HG-3 CLL cells; HG-3, 2.5 µM compound, without NAC) was 90%. The apoptosis (HG-3 CLL cells; HG-3, 2.5 µM compound, without Z-VAD-FMK) was 84%, the apoptosis (HG-3 CLL cells; HG-3, 5 µM compound, in the presence of NAC) was 51% and the apoptosis (HG-3 CLL cells; HG-3, 5 µM compound, in the presence of Z-VAD-FMK) was 50%. For the same compound, the apoptosis (HG-3 CLL cells; HG-3, 5 µM compound, without NAC) was 84%, the apoptosis (HG-3 CLL cells; HG-3, 5 µM compound, without Z-VAD-FMK) was 74% and the apoptosis (PGA-1 CLL cells; PGA1, 2.5 µM compound, in the presence of NAC) was 21%. It also gave an apoptosis (PGA-1 CLL cells; PGA1, 2.5 µM compound, in the presence of Z-VAD-FMK) of 25%, an apoptosis (PGA-1 CLL cells; PGA1, 2.5 µM compound, without NAC) of 68% and an apoptosis (PGA-1 CLL cells; PGA1, 2.5 µM compound, without Z-VAD-FMK) of 63%. The apoptosis (PGA-1 CLL cells; PGA1, 5 µM compound, in the presence of NAC) was 33%, the apoptosis (PGA-1 CLL cells; PGA1, 5 µM compound, in the presence of Z-VAD-FMK) was 43% and the apoptosis (PGA-1 CLL cells; PGA1, 5 µM compound, without NAC) was 88%. The apoptosis (PGA-1 CLL cells; PGA1, 5 µM compound, without Z-VAD-FMK) was 79%, the IC50 (MUTU-1 cells) was 880 nM and the “% Viable Cells Remaining MUTU-1 24 h 1 µM” value ([1]; 1 µM) was 39.80%. For the same compound, the “% Viable Cells Remaining MUTU-1 24 h 10 µM” value ([1]; 10 µM) was 10.28% and the “% Viable Cells Remaining DG-75 48 h 1 µM” value [2] was 84.50%.
